Experimental data reported in patent US20180179198A1, “TRICYCLIC MODULATORS OF TNF SIGNALING” (AbbVie Inc., priority 2015, published 2018).
Structures can show the parent of a compound that is named as a salt.

Biological target: TNFα trimer (Homo sapiens, UniProt P01375)
Experiment: TNFα FP Competitive Binding Assay
Details: fluorescence polarization competition; 20 nM TNFα trimer, 1 nM OregonGreen488 probe; read-out: TNF IC50 (TNFα FP binding assay IC50)
Outline: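 Compounds, 12-point 1:3 dilutions topping at 100 μM (2.0% DMSO) or 338 μM (3.4% DMSO) final, compete with 1 nM fluorescent probe for 20 nM TNFα trimer in HEPES/NaCl/EDTA/Triton buffer. After 18-24 h incubation at 37 °C plus 1 h rt equilibration, background-subtracted polarization is read and fitted with variable slope.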

Chain of TNFα trimer (P01375 77-233 limits assumed): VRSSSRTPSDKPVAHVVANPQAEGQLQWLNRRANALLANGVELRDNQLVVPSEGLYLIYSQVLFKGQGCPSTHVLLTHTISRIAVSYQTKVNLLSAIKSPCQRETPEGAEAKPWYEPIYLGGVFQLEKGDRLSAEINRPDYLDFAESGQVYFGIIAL

`COc1ccccc1C1CCCc2nc3ccc(-c4cnc(C(C)(C)O)nc4)cn3c21` (centres unmarked) [Example 16, 2-(5-(9-(2-Methoxyphenyl)-6,7,8,9-tetrahydrobenzo[4,5]imidazo[1,2-a]pyridin-2-yl)pyrimidin-2-yl)propan-2-ol] and `COc1ccccc1C1COCc2nc3ccc(-c4cnc(C(C)(C)O)nc4)cn3c21` (centres unmarked) [Example 32, 2-(5-(4-(2-Methoxyphenyl)-3,4-dihydro-1H-pyrano[3′,4′:4,5]imidazo[1,2-a]pyridin-7-yl)pyrimidin-2-yl)propan-2-ol] cannot be ordered by IC50: < 1 µM for the first, < 1 µM for the second.

First: CC(C)(O)c1ncc(-c2ccc3nc4n(c3c2)C(C2CCCCC2)CC4)cn1 (centres unmarked) [Example 17, 2-(5-(1-Cyclohexyl-2,3-dihydro-H-benzo[d]pyrrolo[1,2-a]imidazol-7-yl)pyrimidin-2-yl)propan-2-ol]
Second: CC(C)(O)c1ncc(-c2ccc3nc4n(c3c2)C(C2CCOCC2)CC4)cn1 (centres unmarked) [Example 38, 2-(5-(1-(Tetrahydro-2H-pyran-4-yl)-2,3-dihydro-1H-benzo[d]pyrrolo[1,2-a]imidazol-7-yl)pyrimidin-2-yl)propan-2-ol]
The IC50 of the first is lower: < 1 µM for the first, 10 to 100 µM for the second. The first is the more potent here.

Compared with `c1ccc(C2CCc3nc4ccc(N5CCN(c6ncccn6)CC5)nc4n32)cc1` (centres unmarked) [Example 18, 8-Phenyl-2-(4-(pyrimidin-2-yl)piperazin-1-yl)-7,8-dihydro-6H-pyrrolo[2′,1′:2,3]imidazo[4,5-b]pyridine], `O=C1NC[C@H]2CN(c3ncc(-c4ccc5nc6n(c5n4)[C@@H](c4ccccc4)CC6)cn3)CCN12` [Example 31, (S)-7-(5-((R)-8-Phenyl-7,8-dihydro-6H-pyrrolo[2′,1′:2,3]imidazo[4,5-b]pyridin-2-yl)pyrimidin-2-yl)hexahydroimidazo[1,5-a]pyrazin-3(2H)-one] is lower in IC50: 1 to 10 µM for the first, < 1 µM for the second.

Compared with `c1ccc(C2COCc3nc4ccc(-c5cnc(N6CCOCC6)nc5)cc4n32)cc1` (centres unmarked) [Example 19, 7-(2-Morpholinopyrimidin-5-yl)-4-phenyl-3,4-dihydro-H-benzo[4,5]imidazo[2,1-c][1,4]oxazine], `c1ccc([C@@H]2COCc3nc4ccc(-c5cnc(N6CCOCC6)nc5)cc4n32)cc1` [Example 20, (R)-7-(2-Morpholinopyrimidin-5-yl)-4-phenyl-3,4-dihydro-1H-benzo[4,5]imidazo[2,1-c][1,4]oxazine] is higher in IC50: < 1 µM for the first, 10 to 100 µM for the second. The first is the more potent here.

Compared with `O=C(O)C1CCN(c2ncc(-c3ccc4nc5n(c4c3)C(c3ccccc3)COC5)cn2)CC1` (centres unmarked) [Example 22, 1-(5-(4-Phenyl-3,4-dihydro-1H-benzo[4,5]imidazo[2,1-c][1,4]oxazin-7-yl)pyrimidin-2-yl)piperidine-4-carboxylic acid], `NC1CC2(CCN(c3ncc(-c4ccc5nc6n(c5c4)[C@@H](c4ccccc4)COC6)cn3)CC2)C1` [Example 36, (S)-7-(5-(4-Phenyl-3,4-dihydro-1H-benzo[4,5]imidazo[2,1-c][1,4]oxazin-7-yl)pyrimidin-2-yl)-7-azaspiro[3.5]nonan-2-amine] is lower in IC50: 1 to 10 µM for the first, < 1 µM for the second. The second is the more potent here.

First: COc1ccccc1C1CCCc2nc3ccc(-c4ccc(C(=O)O)s4)cn3c21 (centres unmarked) [Example 23, 5-(9-(2-Methoxyphenyl)-6,7,8,9-tetrahydrobenzo[4,5]imidazo[1,2-a]pyridin-2-yl)thiophene-2-carboxylic acid]
Second: COc1ccccc1C1CCc2nc3ccc(-c4cnc(N5CCN6C(=O)NCC6C5)nc4)nn3c21 (centres unmarked) [Example 34, 7-(5-(8-(2-Methoxyphenyl)-7,8-dihydro-6H-cyclopenta[4,5]imidazo[1,2-b]pyridazin-2-yl)pyrimidin-2-yl)hexahydroimidazo[1,5-a]pyrazine-3(2H)-one]
The IC50 of the first is higher: 1 to 10 µM for the first, < 1 µM for the second.

`O=C1NC[C@@H]2CN(c3ncc(-c4ccc5nc6n(c5c4)[C@@H](c4ccccc4)CC6)cn3)CCN12` [Example 24, (R)-7-(5-((R)-1-Phenyl-2,3-dihydro-1H-benzo[d]pyrrolo[1,2-a]imidazol-7-yl)pyrimidin-2-yl)hexahydroimidazo[1,5-a]pyrazin-3(2H)-one] and `O=C1NC[C@H]2CN(c3ncc(-c4ccc5nc6n(c5c4)[C@@H](c4ccccc4)CC6)cn3)CCN12` [Example 25, (S)-7-(5-((R)-1-Phenyl-2,3-dihydro-1H-benzo[d]pyrrolo[1,2-a]imidazol-7-yl)pyrimidin-2-yl)hexahydroimidazo[1,5-a]pyrazin-3(2H)-one] cannot be ordered by IC50: < 1 µM for the first, < 1 µM for the second.

`O=C1NC[C@@H]2CN(c3ncc(-c4ccc5nc6n(c5c4)[C@@H](c4ccccc4)COC6)cn3)CCN12` [Example 26, (R)-7-(5-((S)-4-Phenyl-3,4-dihydro-1H-benzo[4,5]imidazo[2,1-c][1,4]oxazin-7-yl)pyrimidin-2-yl)hexahydroimidazo[1,5-a]pyrazin-3(2H)-one] and `O=C1NC[C@H]2CN(c3ncc(-c4ccc5nc6n(c5c4)[C@@H](c4ccccc4)COC6)cn3)CCN12` [Example 27, (S)-7-(5-((S)-4-Phenyl-3,4-dihydro-1H-benzo[4,5]imidazo[2,1-c][1,4]oxazin-7-yl)pyrimidin-2-yl)hexahydroimidazo[1,5-a]pyrazin-3(2)-one] cannot be ordered by IC50: < 1 µM for the first, < 1 µM for the second.

`CC(C)(O)c1ncc(-c2ccc3nc4n(c3c2)C(c2ccccn2)CC4)cn1` (centres unmarked) [Example 28, 2-(5-(1-(Pyridin-2-yl)-2,3-dihydro-1H-benzo[d]pyrrolo[1,2-a]imidazol-7-yl)pyrimidin-2-yl)propan-2-ol] and `CC(C)(O)c1ncc(-c2ccc3nc4n(c3n2)C(c2ccccn2)CC4)cn1` (centres unmarked) [Example 29, 2-(5-(8-(Pyridin-2-yl)-7,8-dihydro-6H-pyrrolo[2′,1′:2,3]imidazo[4,5-b]pyridin-2-yl)pyrimidin-2-yl)propan-2-ol] fall in the same range of IC50: 1 to 10 µM for the first, 1 to 10 µM for the second.

First: OC1CCN(c2ncc(-c3ccc4nc5c(n4n3)C(c3ccccc3)CC5)cn2)CC1 (centres unmarked) [Example 33, 1-(5-(8-Phenyl-7,8-dihydro-6H-cyclopenta[4,5]imidazo[1,2-b]pyridazin-2-yl)pyrimidin-2-yl)piperidin-4-ol]
Second: O=P(O)(O)OC1CCN(c2ncc(-c3ccc4nc5n(c4n3)[C@@H](c3ccccc3)CC5)cn2)CC1 [Example 46.1, (R)-1-(5-(8-Phenyl-7,8-dihydro-6H-pyrrolo[2′,1′:2,3]imidazo[4,5-b]pyridin-2-yl)pyrimidin-2-yl)piperidin-4-yl dihydrogen phosphate hydrochloride]
The IC50 of the first is lower: < 1 µM for the first, 1 to 10 µM for the second. The first is the more potent here.

`O=C1NCC2CN(c3ncc(-c4ccc5nc6n(c5c4)C(c4ccccc4C(F)(F)F)COC6)cn3)CCN12` (centres unmarked) [Example 35, 7-(5-(4-(2-(Trifluoromethyl)phenyl)-3,4-dihydro-H-benzo[4,5]imidazo[2,1-c][1,4]oxazin-7-yl)pyrimidin-2-yl)hexahydroimidazo[1,5-a]pyrazin-3(2H)-one] and `c1ccc([C@H]2COCc3nc4ccc(-c5cnc(N6[C@H]7CCC[C@@H]6CNCC7)nc5)cc4n32)cc1` [Example 37] cannot be ordered by IC50: < 1 µM for the first, < 1 µM for the second.

First: CC(C)(O)c1ncc(-c2ccc3nc4n(c3n2)C(C)(c2ccccc2)CC4)cn1 (centres unmarked) [Example 39, 2-(5-(8-Methyl-8-phenyl-7,8-dihydro-6H-pyrrolo[2′,1′:2,3]imidazo[4,5-b]pyridin-2-yl)pyrimidin-2-yl)propan-2-ol]
Second: OC[C@H]1CCCN1c1ncc(-c2ccc3nc4n(c3n2)[C@@H](c2ccccc2)CC4)cn1 [Example 40, ((R)-1-(5-((R)-8-Phenyl-7,8-dihydro-6H-pyrrolo[2′,1′:2,3]imidazo[4,5-b]pyridin-2-yl)pyrimidin-2-yl)pyrrolidin-2-yl)methanol]
The IC50 of the first is lower: < 1 µM for the first, 1 to 10 µM for the second. The first is the more potent here.

`CC(=O)N1CCN(c2ncc(-c3ccc4nc5n(c4n3)[C@@H](c3ccccc3)CC5)cn2)C[C@H]1C` [Example 41, 1-((R)-2-Methyl-4-(5-((R)-8-phenyl-7,8-dihydro-6H-pyrrolo[2′,1′:2,3]imidazo[4,5-b]pyridin-2-yl)pyrimidin-2-yl)piperazin-1-yl)ethanone] and `CC(=O)N1CCN(c2ncc(-c3ccc4nc5n(c4n3)[C@@H](c3ccccc3)CC5)cn2)C[C@@H]1C` [Example 42, 1-((S)-2-Methyl-4-(5-((R)-8-phenyl-7,8-dihydro-6H-pyrrolo[2′,1′:2,3]imidazo[4,5-b]pyridin-2-yl)pyrimidin-2-yl)piperazin-1-yl)ethanone] cannot be ordered by IC50: < 1 µM for the first, < 1 µM for the second.

`C[C@@H]1CN(c2ncc(-c3ccc4nc5n(c4n3)[C@@H](c3ccccc3)CC5)cn2)CCN1C(=O)CO` [Example 43, 2-Hydroxy-1-((R)-2-methyl-4-(5-((R)-8-phenyl-7,8-dihydro-6H-pyrrolo[2′,1′:2,3]imidazo[4,5-b]pyridin-2-yl)pyrimidin-2-yl)piperazin-1-yl)ethanone] and `CC(=O)N1CCN(c2ncc(-c3ccc4nc5n(c4n3)[C@@H](c3cccc(CO)c3)CC5)cn2)C[C@H]1C` [Example 44, 1-((R)-4-(5-((R)-8-(3-(Hydroxymethyl)phenyl)-7,8-dihydro-6H-pyrrolo[2′,1′:2,3]imidazo[4,5-b]pyridin-2-yl)pyrimidin-2-yl)-2-methylpiperazin-1-yl)ethanone] cannot be ordered by IC50: < 1 µM for the first, < 1 µM for the second.

First: CC(C)[C@H](N)C(=O)OC1CCN(c2ncc(-c3ccc4nc5n(c4n3)[C@@H](c3ccccc3)CC5)cn2)CC1 [Example 46, (S)-1-(5-((R)-8-Phenyl-7,8-dihydro-6H-pyrrolo[2′,1′:2,3]imidazo[4,5-b]pyridin-2-yl)pyrimidin-2-yl)piperidin-4-yl 2-amino-3-methylbutanoate]
Second: c1ccc([C@H]2CCc3nc4ccc(-c5ccnc(OC6CCOCC6)c5)nc4n32)cc1 [Example 47, (R)-8-Phenyl-2-(2-((tetrahydro-2H-pyran-4-yl)oxy)pyridin-4-yl)-7,8-dihydro-6H-pyrrolo[2′,1′:2,3]imidazo[4,5-b]pyridine]
The IC50 of the first is higher: 1 to 10 µM for the first, < 1 µM for the second.

`c1ccc([C@H]2CCc3nc4ccc(-c5ccnc(OC6CCCOC6)c5)nc4n32)cc1` (stereo partly drawn) [Example 48, (8R)-8-Phenyl-2-(2-((tetrahydro-2H-pyran-3-yl)oxy)pyridin-4-yl)-7,8-dihydro-6H-pyrrolo[2′,1′:2,3]imidazo[4,5-b]pyridine] and `c1ccc([C@H]2CCc3nc4ccc(-c5ccnc(O[C@H]6CCNC6)c5)nc4n32)cc1` [Example 49] fall in the same range of IC50: 1 to 10 µM for the first, 1 to 10 µM for the second.
